This assay addresses T1, JAK3 (Homo sapiens, UniProt P52333).
T1 construct: endogenous in cells; host or cells: Molt4 (ATCC CRL-1582) and Ramos (ATCC CRL-1596), mixed lysate 1:2
T1 sequence (P52333 1-1124): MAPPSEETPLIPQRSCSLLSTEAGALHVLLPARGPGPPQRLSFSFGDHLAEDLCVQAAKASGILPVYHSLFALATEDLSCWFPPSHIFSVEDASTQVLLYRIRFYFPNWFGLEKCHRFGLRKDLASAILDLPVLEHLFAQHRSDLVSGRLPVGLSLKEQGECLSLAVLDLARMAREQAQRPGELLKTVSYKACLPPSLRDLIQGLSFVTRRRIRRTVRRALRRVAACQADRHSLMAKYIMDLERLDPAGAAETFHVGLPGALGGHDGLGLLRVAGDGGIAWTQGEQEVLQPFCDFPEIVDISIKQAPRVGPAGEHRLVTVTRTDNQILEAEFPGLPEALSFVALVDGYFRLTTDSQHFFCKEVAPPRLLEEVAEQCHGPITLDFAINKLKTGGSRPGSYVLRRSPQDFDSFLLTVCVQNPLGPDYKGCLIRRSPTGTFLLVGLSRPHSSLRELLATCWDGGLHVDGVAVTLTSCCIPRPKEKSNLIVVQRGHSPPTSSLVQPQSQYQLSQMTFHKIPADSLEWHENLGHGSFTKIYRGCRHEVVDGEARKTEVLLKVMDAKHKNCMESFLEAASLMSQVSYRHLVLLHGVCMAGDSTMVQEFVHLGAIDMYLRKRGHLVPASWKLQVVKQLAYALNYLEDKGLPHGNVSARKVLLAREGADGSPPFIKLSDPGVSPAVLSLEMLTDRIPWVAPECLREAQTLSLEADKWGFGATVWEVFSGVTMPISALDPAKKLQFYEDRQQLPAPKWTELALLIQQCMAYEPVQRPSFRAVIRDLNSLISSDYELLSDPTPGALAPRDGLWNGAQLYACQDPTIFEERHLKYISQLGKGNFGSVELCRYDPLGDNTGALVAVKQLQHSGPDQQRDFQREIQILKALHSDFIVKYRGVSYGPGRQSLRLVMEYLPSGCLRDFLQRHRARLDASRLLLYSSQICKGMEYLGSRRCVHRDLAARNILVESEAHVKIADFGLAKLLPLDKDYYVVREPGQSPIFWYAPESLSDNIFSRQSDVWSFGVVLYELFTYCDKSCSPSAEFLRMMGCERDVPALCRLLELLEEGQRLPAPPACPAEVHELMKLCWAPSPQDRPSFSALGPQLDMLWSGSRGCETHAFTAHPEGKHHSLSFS
Briefly: Kinobeads assay, JAK3. The class given is binding. To be noted: mixed Molt4/Ramos lysate, read-out: Inhibition values (IC50) JAK3. Here is the method:
The compounds of the present invention as described in the previous examples were tested in a Kinobeads™ assay as described for ZAP-70 (WO-A 2007/137867). Briefly, test compounds (at various concentrations) and the affinity matrix with the immobilized aminopyrido-pyrimidine ligand 24 were added to cell lysate aliquots and allowed to bind to the proteins in the lysate sample. After the incubation time the beads with captured proteins were separated from the lysate. Bound proteins were then eluted and the presence of JAK1, JAK2, JAK3 and TYK2 was detected and quantified using specific antibodies in a dot blot procedure and the Odyssey infrared detection system. Dose response curves for individual kinases were generated and IC50 values calculated. Kinobeads™ assays for ZAP-70 (WO-A 2007/137867) and for kinase selectivity profiling (WO-A 2006/134056) have been previously described.
The affinity matrix was washed two times with 15 mL of lx DP buffer containing 0.2% NP40 (IGEPAL® CA-630, Sigma, #13021) and then resuspended in 1×DP buffer containing 0.2% NP40 (3% beads slurry).
5×DP buffer: 250 mM Tris-HCl pH 7.4, 25% Glycerol, 7.5 mM MgCl2, 750 mM NaCl, 5 mM Na3VO4; filter the 5×DP buffer through a 0.22 μm filter and store in aliquots at −80° C. The 5×DP buffer is diluted with H2O to 1×DP buffer containing 1 mM DTT and 25 mM NaF.
Stock solutions of test compounds were prepared in DMSO. In a 96 well plate […] solution of diluted test compounds at 5 mM in DMSO were prepared. Starting with this solution a 1:3 dilution series (9 steps) was prepared. For control experiments (no test compound) a buffer containing 2% DMSO was used.
Molt4 cells (ATCC catalogue number CRL-1582) and Ramos cells (ATCC catalogue number CRL-1596) were grown in 1 L Spinner flasks (Integra Biosciences, #182101) in suspension in RPMI 1640 medium (Invitrogen, #21875-034) supplemented with 10% Fetal Bovine Serum (Invitrogen) at a density between 0.15×10^6 and 1.2×10^6 cells/mL. Cells were harvested by centrifugation, washed once with 1×PBS buffer (Invitrogen, #14190-094) and cell pellets were frozen in liquid nitrogen and subsequently stored at −80° C. Cells were homogenized in a Potter S homogenizer in lysis buffer: 50 mM Tris-HCl, 0.8% NP40, 5% glycerol, 150 mM NaCl, 1.5 mM MgCl2, 25 mM NaF, 1 mM sodium vanadate, 1 mM DTT, pH 7.5. One complete EDTA-free tablet (protease inhibitor cocktail, Roche Diagnostics, 1873580) per 25 mL buffer was added. The material was dounced 10 times using a mechanized POTTER S, transferred to 50 mL falcon tubes, incubated for 30 minutes on ice and spun down for 10 minutes at 20,000 g at 4° C. (10,000 rpm in Sorvall SLA600, precooled). The supernatant was transferred to an ultracentrifuge (UZ)-polycarbonate tube (Beckmann, 355654) and spun for 1 hour at 100.000 g at 4° C. (33.500 rpm in Ti50.2, precooled). The supernatant was transferred again to a fresh 50 mL falcon tube, the protein concentration was determined by a Bradford assay (BioRad) and samples containing 50 mg of protein per aliquot were prepared. The samples were immediately used for experiments or frozen in liquid nitrogen and stored frozen at −80° C.
Cell lysate (approximately 50 mg protein per plate) was thawed in a water bath at room temperature and then stored on ice. To the thawed cell lysate 1×DP 0.8% NP40 buffer containing protease inhibitors (1 tablet for 25 mL buffer; EDTA-free protease inhibitor cocktail; Roche Diagnostics 1873580) was added in order to reach a final protein concentration of 10 mg/mL total protein. The diluted cell lysate was stored on ice. Mixed Molt4/Ramos lysate was prepared by combining one volume of Molt4 lysate and two volumes of Ramos lysate (ratio 1:2).
To a 96 well filter plate (Multiscreen HTS, BV Filter Plates, Millipore #MSBVN1250) were added per well: 100 μL affinity matrix (3% beads slurry), […], of compound solution, and 50 μL of diluted lysate. […]

By IC50 is commonly meant the concentration at which inhibition is half-maximal.

A value given as a limit tells only on which side of the number the result lay.

With `Cn1cc(Nc2ncc(F)c(N[C@H](CO)c3cc(F)cc(F)c3)n2)cn1` [Compound 158], the IC50 is less than 100 nM. For `OCCn1cc(Nc2ncc(F)c(N[C@H](CO)c3cc(F)cc(F)c3)n2)cn1` [Compound 159] the value was less than 100 nM; for `NC(=O)Cn1cc(Nc2ncc(F)c(N[C@H](CO)c3cc(F)cc(F)c3)n2)cn1` [Compound 160], less than 100 nM; for `CNC(=O)Cn1cc(Nc2ncc(F)c(N[C@H](CO)c3cc(F)cc(F)c3)n2)cn1` [Compound 161], less than 100 nM. `Cn1cc(Nc2ncc(Cl)c(N[C@H](CO)c3cccc(N4CCOCC4=O)c3F)n2)cn1` [Compound 162]: the IC50 was less than 100 nM. As to `Cc1cnc(Nc2cnn(C)c2)nc1N[C@H](CO)c1cc(F)ccc1F` [Compound 163], the IC50 is less than 100 nM. On to `Cc1cnc(Nc2cnn(C)c2)nc1N[C@H](CO)c1cc(F)cc(F)c1` [Compound 164], for which the IC50 fell in the range of 100 to 1000 nM. For `OC[C@@H](Nc1nc(Nc2cnn(CC(F)F)c2)ncc1Cl)c1ccccc1F` [Compound 165], the IC50 was less than 100 nM. For the compound `Cc1cnc(Nc2cnn(CC(F)F)c2)nc1N[C@H](CO)c1cc(F)ccc1F` [Compound 166], the IC50 was 100 to 1000 nM.

For the origin of these results see patent US20140179664A1, “Heterocyclyl Pyrimidine Analogues As JAK Inhibitors” (Cellzome Limited, priority 2011, published 2014).
